For this assay, the target named is T1, ΔF508-CFTR (Homo sapiens, UniProt P13569, DEL508-508).
T1 construct: expressed in transfected cells
In words: Membrane potential optical (FRET/VIPR) assay, identification of potentiator compounds. Particulars: Table 3, assay not given; for % Activity: relative efficacy. The class given is cell-based. The gist of the method:
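NIH3T3 mouse fibroblasts stably expressing ΔF508-CFTR, temperature-corrected 24 h at 27° C., read on VIPR by FRET between CC2-DMPE and DiSBAC2(3). Potentiators identified in a double-addition format, first adding chloride-free (gluconate) medium with or without compound.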

Here are results for 32 compounds from US8614327B2 (Vertex Pharmaceuticals Incorporated, priority 2004, dated 2013).

Molecules are shown by their SMILES.

T1 sequence (P13569 with tags, fused parts or gaps DEL508-508): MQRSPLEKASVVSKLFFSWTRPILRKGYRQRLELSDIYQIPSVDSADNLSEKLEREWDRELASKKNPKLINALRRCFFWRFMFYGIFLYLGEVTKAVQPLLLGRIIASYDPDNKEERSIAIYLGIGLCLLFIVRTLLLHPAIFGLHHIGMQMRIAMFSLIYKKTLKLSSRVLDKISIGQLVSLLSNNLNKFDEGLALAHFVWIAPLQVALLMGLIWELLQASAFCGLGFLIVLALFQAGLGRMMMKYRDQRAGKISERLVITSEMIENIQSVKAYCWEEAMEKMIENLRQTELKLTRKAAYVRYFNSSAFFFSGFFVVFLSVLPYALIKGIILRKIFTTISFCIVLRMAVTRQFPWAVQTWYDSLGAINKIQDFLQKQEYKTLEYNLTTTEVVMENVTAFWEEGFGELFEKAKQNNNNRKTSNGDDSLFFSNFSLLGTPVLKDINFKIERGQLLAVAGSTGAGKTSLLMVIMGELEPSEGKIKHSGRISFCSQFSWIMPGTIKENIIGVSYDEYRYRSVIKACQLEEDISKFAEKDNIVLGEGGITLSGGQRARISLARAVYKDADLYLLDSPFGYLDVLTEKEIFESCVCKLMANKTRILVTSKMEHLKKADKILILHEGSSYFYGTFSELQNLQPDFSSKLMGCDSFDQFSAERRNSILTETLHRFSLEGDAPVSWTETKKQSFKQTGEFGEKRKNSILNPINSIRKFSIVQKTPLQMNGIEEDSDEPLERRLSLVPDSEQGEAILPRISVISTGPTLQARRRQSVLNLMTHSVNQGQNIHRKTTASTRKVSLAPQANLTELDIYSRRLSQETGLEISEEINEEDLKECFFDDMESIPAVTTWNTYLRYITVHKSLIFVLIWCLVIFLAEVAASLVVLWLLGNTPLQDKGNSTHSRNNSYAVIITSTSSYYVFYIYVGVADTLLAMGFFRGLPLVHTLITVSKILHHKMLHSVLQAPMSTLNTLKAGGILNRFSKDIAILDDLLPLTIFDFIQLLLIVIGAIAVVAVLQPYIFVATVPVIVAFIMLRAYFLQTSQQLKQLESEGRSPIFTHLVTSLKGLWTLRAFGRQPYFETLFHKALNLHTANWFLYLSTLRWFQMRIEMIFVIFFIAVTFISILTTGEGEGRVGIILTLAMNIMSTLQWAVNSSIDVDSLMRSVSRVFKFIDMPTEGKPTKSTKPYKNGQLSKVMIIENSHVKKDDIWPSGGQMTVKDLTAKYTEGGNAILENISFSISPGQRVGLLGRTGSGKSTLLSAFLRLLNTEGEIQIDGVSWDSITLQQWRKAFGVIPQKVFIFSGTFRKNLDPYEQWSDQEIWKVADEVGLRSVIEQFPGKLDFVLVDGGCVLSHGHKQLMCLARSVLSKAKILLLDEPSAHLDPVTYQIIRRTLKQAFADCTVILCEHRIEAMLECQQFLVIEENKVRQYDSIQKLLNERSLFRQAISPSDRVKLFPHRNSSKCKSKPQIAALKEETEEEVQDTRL

What is called EC50 is the concentration needed to bring the measured effect to its halfway point. On to `CNc1cc(NC(=O)c2c[nH]c3ccccc3c2=O)ccc1C(C)(C)C` [Compound 484, N-(3-methylamino-4-tert-butyl-phenyl)-4-oxo-1H-quinoline-3-carboxamide], for which the EC50 was less than 10 µM and the “% Activity” value was “++ (between 25% to 100%)”.

Take `O=C(Nc1cc(O)c2ccccc2c1)c1c[nH]c2ccccc2c1=O` [Compound 551, N-(4-hydroxy-2-naphthyl)-4-oxo-1H-quinoline-3-carboxamide]: the “% Activity” value was “++ (between 25% to 100%)”.

Turning to `Cc1cc(C2CCCCC2)ccc1NC(=O)c1c[nH]c2ccccc2c1=O` [Compound 647, N-(4-cyclohexyl-2-methyl-phenyl)-4-oxo-1H-quinoline-3-carboxamide], the EC50 is less than 10 µM and the “% Activity” value is on record as “++ (between 25% to 100%)”.

Turning to `O=C(Nc1cnccn1)c1c[nH]c2ccccc2c1=O` [Compound 219, 4-oxo-N-pyrazin-2-yl-1H-quinoline-3-carboxamide], the EC50 fell in the range of 25 to 60 µM and the “% Activity” value is given as “+ (<25%)”.

Consider `O=C(Nc1cccc(S(=O)(=O)N2CCOCC2)c1)c1c[nH]c2ccccc2c1=O` [Compound 185, N-(3-morpholinosulfonylphenyl)-4-oxo-1H-quinoline-3-carboxamide], for which the EC50 was in the range of 25 to 60 µM and the “% Activity” value is “+ (<25%)”.

For the compound `Cc1cccc2[nH]cc(C(=O)Nc3ccc(N4CCC[C@@H]4C)nc3C(F)(F)F)c(=O)c12` [Compound 581, (S)-5-methyl-N-(6-(2-methylpyrrolidin-1-yl)-2-(trifluoromethyl)pyridin-3-yl)-4-oxo-1,4-dihydroquinoline-3-carboxamide], the concentration giving a half-maximal response (EC50) is less than 10 µM and the “% Activity” value is reported as “++ (between 25% to 100%)”.

As to `Cc1cc(C)c(NC(=O)c2c[nH]c3ccccc3c2=O)c(C)c1` [Compound 50, 4-oxo-N-(2,4,6-trimethylphenyl)-1H-quinoline-3-carboxamide], the half-maximal effective concentration (EC50) was less than 10 µM and the “% Activity” value is recorded as “++ (between 25% to 100%)”.

Take `CC(C)COC(=O)NCC(C)(C)c1ccc(NC(=O)c2c[nH]c3ccccc3c2=O)cc1` [Compound 251, [2-methyl-2-[4-[(4-oxo-1H-quinolin-3-yl)carbonylamino]phenyl]-propyl]aminoformic acid isobutyl ester]: the half-maximal effective concentration (EC50) was less than 10 µM and the “% Activity” value is listed as “++ (between 25% to 100%)”.

Regarding `Cc1cc(-c2ccccc2NC(=O)c2c[nH]c3ccccc3c2=O)ccc1F` [Compound 79, N-[2-(4-fluoro-3-methyl-phenyl)phenyl]-4-oxo-1H-quinoline-3-carboxamide], the “% Activity” value is “++ (between 25% to 100%)”.

`O=C(Nc1ccc2[nH]c(=O)oc2c1)c1c[nH]c2ccccc2c1=O` [Compound 152, 4-oxo-N-(2-oxo-3H-benzooxazol-6-yl)-1H-quinoline-3-carboxamide]: the half-maximal effective concentration (EC50) fell in the range of 25 to 60 µM and the “% Activity” value was “+ (<25%)”.

As to `O=C(Nc1ccc(Oc2cccnc2)cc1)c1c[nH]c2ccccc2c1=O` [Compound 614, 4-oxo-N-[4-(3-pyridyloxy)phenyl]-1H-quinoline-3-carboxamide], the EC50 was less than 10 µM and the “% Activity” value is recorded as “++ (between 25% to 100%)”.

Turning to `CCOC(=O)Nc1ccc(C(C)C)c(NC(=O)c2c[nH]c3ccccc3c2=O)c1` [Compound 269, [4-isopropyl-3-[(4-oxo-1H-quinolin-3-yl)carbonylamino]phenyl]aminoformic acid ethyl ester], the 50% effective concentration (EC50) was less than 10 µM and the “% Activity” value was “++ (between 25% to 100%)”.

In the case of `COC(=O)[C@@H]1C[C@@H](OC(C)(C)C)CN1c1ccc(NC(=O)c2c[nH]c3ccccc3c2=O)c(C(F)(F)F)c1` [Compound 550, (2S,4R)-methyl 4-tert-butoxy-1-(4-(4-oxo-1,4-dihydroquinoline-3-carboxamido)-3-(trifluoromethyl)phenyl)pyrrolidine-2-carboxylate], the EC50 was less than 10 µM and the “% Activity” value is reported as “++ (between 25% to 100%)”.

Turning to `COc1ccc(NC(=O)c2c[nH]c3ccccc3c2=O)cn1` [Compound 162, N-(6-methoxy-3-pyridyl)-4-oxo-1H-quinoline-3-carboxamide], the EC50 lay in the range of 25 to 60 µM and the “% Activity” value was “+ (<25%)”.

Regarding `Cc1cccc2[nH]cc(C(=O)Nc3ccc(N4CC[C@H](F)C4)cc3C(F)(F)F)c(=O)c12` [Compound 626, (S)-N-(4-(3-fluoropyrrolidin-1-yl)-2-(trifluoromethyl)phenyl)-5-methyl-4-oxo-1,4-dihydroquinoline-3-carboxamide], the EC50 was less than 10 µM and the “% Activity” value was “++ (between 25% to 100%)”.

In the case of `O=C(Nc1ccc(C(F)(F)F)c(O)c1)c1c[nH]c2ccc(F)cc2c1=O` [Compound 650, 6-fluoro-N-[3-hydroxy-4-(trifluoromethyl)phenyl]-4-oxo-1H-quinoline-3-carboxamide], the EC50 was less than 10 µM and the “% Activity” value was “++ (between 25% to 100%)”.

In the case of `Cc1ccc2[nH]cc(C(=O)Nc3cc(O)c(C4(C)CCCCC4)cc3F)c(=O)c2c1` [Compound 624, N-[2-fluoro-5-hydroxy-4-(1-methylcyclohexyl)-phenyl]-6-methyl-4-oxo-1H-quinoline-3-carboxamide], the EC50 was less than 10 µM and the “% Activity” value was “++ (between 25% to 100%)”.

Regarding `COc1cccc(OC)c1-c1cc2cc[nH]c2cc1NC(=O)c1c[nH]c2ccccc2c1=O` [Compound 404, N-[5-(2,6-dimethoxyphenyl)-1H-indol-6-yl]-4-oxo-1H-quinoline-3-carboxamide], the EC50 was less than 10 µM and the “% Activity” value is listed as “++ (between 25% to 100%)”.

For `Cn1cc(C(=O)Nc2ccccc2)c(=O)c2ccccc21` [Compound 468, 1-methyl-4-oxo-N-phenyl-1H-quinoline-3-carboxamide], the EC50 is 25 to 60 µM and the “% Activity” value is on record as “+ (<25%)”.

For the compound `CC(C)(C)OC(=O)NC1CCCc2ccc(NC(=O)c3c[nH]c4ccccc4c3=O)cc21` (stereo not shown) [Compound 273, [7-[(4-oxo-1H-quinolin-3-yl)carbonylamino]tetralin-1-yl]aminoformic acid tert-butyl ester], the EC50 was less than 10 µM and the “% Activity” value is “+++ (>100%)”.

As to `CS(=O)(=O)Nc1cccc(NC(=O)c2c[nH]c3ccccc3c2=O)c1` [Compound 214, N-(3-methylsulfonylaminophenyl)-4-oxo-1H-quinoline-3-carboxamide], the “% Activity” value is “++ (between 25% to 100%)”.

Regarding `O=C(Nc1cccn2ncnc12)c1c[nH]c2ccccc2c1=O` [Compound 146, 4-oxo-N-(1,7,9-triazabicyclo[4.3.0]nona-2,4,6,8-tetraen-5-yl)-1H-quinoline-3-carboxamide], the EC50 lay in the range of 25 to 60 µM and the “% Activity” value is on record as “+ (<25%)”.

Consider `CC(C)(CO)c1ccc(NC(=O)c2c[nH]c3ccccc3c2=O)cc1` [Compound 5, N-[4-(2-hydroxy-1,1-dimethyl-ethyl)phenyl]-4-oxo-1H-quinoline-3-carboxamide], for which the EC50 was 10 to 25 µM and the “% Activity” value was “++ (between 25% to 100%)”.

`COC(=O)c1cc(NC(=O)c2c[nH]c3ccccc3c2=O)ccc1C(C)(C)C` [Compound 444, 5-[(4-oxo-1H-quinolin-3-yl)carbonylamino]-2-tert-butyl-benzoic acid methyl ester]: the EC50 was less than 10 µM and the “% Activity” value is “++ (between 25% to 100%)”.

`Cc1cccc2[nH]cc(C(=O)Nc3ccc(N4[C@H](C)CC[C@@H]4C)cc3C(F)(F)F)c(=O)c12` [Compound 592, N-(4-((2R,5S)-2,5-dimethylpyrrolidin-1-yl)-2-(trifluoromethyl)phenyl)-5-methyl-4-oxo-1,4-dihydroquinoline-3-carboxamide]: the EC50 was less than 10 µM and the “% Activity” value is “++ (between 25% to 100%)”.

Take `CC(C)(C)c1cc(C(F)(F)F)c(NC(=O)c2c[nH]c3cccc(O)c3c2=O)cc1O` [Compound 487, 5-hydroxy-N-[5-hydroxy-4-tert-butyl-2-(trifluoromethyl)phenyl]-4-oxo-1H-quinoline-3-carboxamide]: the EC50 was less than 10 µM and the “% Activity” value was “++ (between 25% to 100%)”.

Turning to `O=C(Nc1cc(O)cc(C(F)(F)F)c1)c1c[nH]c2ccc(F)cc2c1=O` [Compound 574, 6-fluoro-N-[3-hydroxy-5-(trifluoromethyl)phenyl]-4-oxo-1H-quinoline-3-carboxamide], the EC50 was less than 10 µM and the “% Activity” value is listed as “++ (between 25% to 100%)”.

For `NS(=O)(=O)c1ccccc1NC(=O)c1c[nH]c2ccccc2c1=O` [Compound 78, 4-oxo-N-(2-sulfamoylphenyl)-1H-quinoline-3-carboxamide], the EC50 was in the range of 25 to 60 µM and the “% Activity” value was “+ (<25%)”.

Take `NCc1ccccc1-c1ccc(NC(=O)c2c[nH]c3ccccc3c2=O)cc1` [Compound 86, N-[4-[2-(aminomethyl)phenyl]phenyl]-4-oxo-1H-quinoline-3-carboxamide]: the EC50 was in the range of 10 to 25 µM and the “% Activity” value is reported as “++ (between 25% to 100%)”.

Consider `O=C(Nc1cccc2ccccc12)c1c[nH]c2ccccc2c1=O` [Compound 350, N-(1-naphthyl)-4-oxo-1H-quinoline-3-carboxamide], for which the EC50 was less than 10 µM and the “% Activity” value was “++ (between 25% to 100%)”.

Turning to `O=C(Nc1ccc(N2CCCC2)cc1C(F)(F)F)c1c[nH]c2ccc(F)cc2c1=O` [Compound 562, 6-fluoro-4-oxo-N-[4-pyrrolidin-1-yl-2-(trifluoromethyl)phenyl]-1H-quinoline-3-carboxamide], the EC50 is less than 10 µM and the “% Activity” value is “++ (between 25% to 100%)”.

Take `N#CCc1ccc(NC(=O)c2c[nH]c3ccccc3c2=O)cc1` [Compound 110, N-[4-(cyanomethyl)phenyl]-4-oxo-1H-quinoline-3-carboxamide]: the EC50 fell in the range of 25 to 60 µM and the “% Activity” value is listed as “+ (<25%)”.
